Structures can show the parent of a compound that is named as a salt.
Legend:
human V2 receptor = molecular target: T1, human V2 receptor (Homo sapiens, UniProt P30518); experiment: Cellular in vitro assay for determining vasopressin receptor activity, V2 receptor cell line (CHO, CRE-luciferase); type: cell-based; conditions: CHO cell line transfected with human V2 receptor; [Arg8]-vasopressin at EC50 concentration; read-out: IC50 hV2
T1 construct: expressed in transfected cells; host or cells: CHO K1 (ATCC) expressing firefly luciferase under a CRE-responsive promoter

human V1a receptor = molecular target: T2, human V1a receptor (Homo sapiens, UniProt P37288); experiment: Cellular in vitro assay for determining vasopressin receptor activity, V1a receptor cell line (CHO, aequorin luminescence); type: cell-based; conditions: for IC50: CHO cell line transfected with human V1a receptor, [Arg]-vasopressin at EC50 concentration, read-out: IC50 hV1a; for ratio IC50 hV2/hV1a: selectivity ratio IC50 hV2 / IC50 hV1a
T2 construct: expressed in transfected cells; host or cells: CHO K1 (ATCC), also stably transfected with a modified aequorin
Outline: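 CHO K1/aequorin cells, coelenterazine 5 μg/ml o/n; cpd 10 min; [Arg]-vasopressin at EC50; luminescence read immediately; IC50.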

T1 sequence (P30518 whole entry): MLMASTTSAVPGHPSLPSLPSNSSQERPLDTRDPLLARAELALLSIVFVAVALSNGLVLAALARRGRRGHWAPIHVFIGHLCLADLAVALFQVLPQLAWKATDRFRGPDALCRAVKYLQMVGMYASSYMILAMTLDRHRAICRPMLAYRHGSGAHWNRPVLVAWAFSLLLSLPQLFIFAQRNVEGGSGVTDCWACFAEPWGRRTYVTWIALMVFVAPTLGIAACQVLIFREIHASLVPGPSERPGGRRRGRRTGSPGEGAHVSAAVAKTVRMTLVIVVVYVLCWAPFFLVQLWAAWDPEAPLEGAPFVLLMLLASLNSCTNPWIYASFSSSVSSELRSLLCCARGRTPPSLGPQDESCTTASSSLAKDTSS
T2 sequence (P37288 whole entry): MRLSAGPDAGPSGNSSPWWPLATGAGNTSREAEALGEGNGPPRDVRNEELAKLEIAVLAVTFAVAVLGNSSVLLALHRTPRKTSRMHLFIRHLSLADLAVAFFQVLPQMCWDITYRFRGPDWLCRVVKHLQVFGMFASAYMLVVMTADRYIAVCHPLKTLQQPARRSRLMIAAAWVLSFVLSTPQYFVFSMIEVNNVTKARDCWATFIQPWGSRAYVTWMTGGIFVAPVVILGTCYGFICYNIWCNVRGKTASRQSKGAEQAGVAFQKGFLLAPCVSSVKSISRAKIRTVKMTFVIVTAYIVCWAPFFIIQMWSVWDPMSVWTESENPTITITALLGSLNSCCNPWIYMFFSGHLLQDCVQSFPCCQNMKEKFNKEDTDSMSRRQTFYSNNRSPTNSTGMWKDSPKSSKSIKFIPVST

Row | IC50 (human V2 receptor) [nM] | IC50 (human V1a receptor) [nM] | ratio IC50 hV2/hV1a (human V1a receptor) | SMILES
1 | 815 | 29.5 | 27.6 | O=C(NC1(C(F)(F)F)CC1)c1ncccc1-n1cnc(Cn2nc(-c3ccc(Cl)cc3)n(C[C@H](O)C(F)(F)F)c2=O)n1 [Example 447, 3-[3-({3-(4-Chlorophenyl)-5-oxo-4-[(2S)-3,3,3-trifluoro-2-hydroxypropyl]-4,5-dihydro-1H-1,2,4-triazol-1-yl}methyl)-1H-1,2,4-triazol-1-yl]-N-[1-(trifluoromethyl)cyclopropyl]pyridine-2-carboxamide]
2 | 1250 | 39.5 | 31.6 | O=C(c1ncccc1-n1cnc(Cn2nc(-c3ccc(Cl)cc3)n(C[C@H](O)C(F)(F)F)c2=O)n1)N1CCC[C@H]1C(F)(F)F [Example 450, 5-(4-Chlorophenyl)-4-[(2S)-3,3,3-trifluoro-2-hydroxypropyl]-2-{[1-(2-{[(2S)-2-(trifluoromethyl)pyrrolidin-1-yl]carbonyl}pyridin-3-yl)-1H-1,2,4-triazol-3-yl]methyl}-2,4-dihydro-3H-1,2,4-triazol-3-one]
3 | 1020 | 110 | 9.3 | O=C(c1ncccc1-n1cnc(Cn2nc(-c3ccc(Cl)cc3)n(C[C@H](O)C(F)(F)F)c2=O)n1)N1CCC[C@@H]1C(F)(F)F [Example 451, 5-(4-Chlorophenyl)-4-[(2S)-3,3,3-trifluoro-2-hydroxypropyl]-2-{[1-(2-{[(2R)-2-(trifluoromethyl)pyrrolidin-1-yl]carbonyl}pyridin-3-yl)-1H-1,2,4-triazol-3-yl]methyl}-2,4-dihydro-3H-1,2,4-triazol-3-one]
4 | 5900 | 265 | 22.3 | O=C(c1ncccc1-n1cnc(Cn2nc(-c3ccc(Cl)cc3)n(C[C@H](O)C(F)(F)F)c2=O)n1)N1CCS(=O)(=O)CC1 [Example 452, 5-(4-Chlorophenyl)-2-[(1-{2-[(1,1-dioxidothiomorpholin-4-yl)carbonyl]pyridin-3-yl}-1H-1,2,4-triazol-3-yl)methyl]-4-[(2S)-3,3,3-trifluoro-2-hydroxypropyl]-2,4-dihydro-3H-1,2,4-triazol-3-one]
5 | 32000 | 175 | 182.9 | CC1(C)CNCCN1C(=O)c1ncccc1-n1cnc(Cn2nc(-c3ccc(Cl)cc3)n(C[C@H](O)C(F)(F)F)c2=O)n1 [Example 453, 5-(4-Chlorophenyl)-2-[(1-{2-[(2,2-dimethylpiperazin-1-yl)carbonyl]pyridin-3-yl}-1H-1,2,4-triazol-3-yl)methyl]-4-[(2S)-3,3,3-trifluoro-2-hydroxypropyl]-2,4-dihydro-3H-1,2,4-triazol-3-one-Hydrochloric Acid Salt]
6 | 4050 | 12 | 337.5 | CN(CC1CC1)C(=O)c1ncccc1-n1cnc(Cn2nc(-c3ccc(Cl)cc3)n(C[C@H](O)C(F)(F)F)c2=O)n1 [Example 454, 3-[3-({3-(4-Chlorophenyl)-5-oxo-4-[(2S)-3,3,3-trifluoro-2-hydroxypropyl]-4,5-dihydro-1H-1,2,4-triazol-1-yl}methyl)-1H-1,2,4-triazol-1-yl]-N-(cyclopropylmethyl)-N-methylpyridine-2-carboxamide]
7 | 1200 | 4.4 | 272.7 | CC1(NC(=O)c2ncccc2-n2cnc(Cn3nc(-c4ccc(Cl)cc4)n(C[C@H](O)C(F)(F)F)c3=O)n2)CC1 [Example 455, 3-[3-({3-(4-Chlorophenyl)-5-oxo-4-[(2S)-3,3,3-trifluoro-2-hydroxypropyl]-4,5-dihydro-1H-1,2,4-triazol-1-yl}methyl)-1H-1,2,4-triazol-1-yl]-N-(1-methylcyclopropyl)pyridine-2-carboxamide]
8 | 5300 | 210 | 25.2 | O=C(NCC(F)(F)F)c1ncccc1-n1cnc(Cn2nc(-c3ccc(Cl)cc3)n(C[C@@H](O)C(F)(F)F)c2=O)n1 [Example 457, 3-[3-({3-(4-Chlorophenyl)-5-oxo-4-[(2R)-3,3,3-trifluoro-2-hydroxypropyl]-4,5-dihydro-1H-1,2,4-triazol-1-yl}methyl)-1H-1,2,4-triazol-1-yl]-N-(2,2,2-trifluoroethyl)pyridine-2-carboxamide]
9 | 6050 | 100 | 60.5 | O=C(NC1CC1)c1ncccc1-n1cnc(Cn2nc(-c3ccc(Cl)cc3)n(C[C@@H](O)C(F)(F)F)c2=O)n1 [Example 458, 3-[3-({3-(4-Chlorophenyl)-5-oxo-4-[(2R)-3,3,3-trifluoro-2-hydroxypropyl]-4,5-dihydro-1H-1,2,4-triazol-1-yl}methyl)-1H-1,2,4-triazol-1-yl]-N-cyclopropylpyridine-2-carboxamide]
10 | 4400 | 210 | 21.0 | O=C(NCC1CC1)c1ncccc1-n1cnc(Cn2nc(-c3ccc(Cl)cc3)n(C[C@@H](O)C(F)(F)F)c2=O)n1 [Example 459, 3-[3-({3-(4-Chlorophenyl)-5-oxo-4-[(2R)-3,3,3-trifluoro-2-hydroxypropyl]-4,5-dihydro-1H-1,2,4-triazol-1-yl}methyl)-1H-1,2,4-triazol-1-yl]-N-(cyclopropylmethyl)pyridine-2-carboxamide]
11 | 3950 | 130 | 30.4 | O=C(NC1CC1(F)F)c1ncccc1-n1cnc(Cn2nc(-c3ccc(Cl)cc3)n(C[C@@H](O)C(F)(F)F)c2=O)n1 (stereo partly drawn) [Example 460, 3-[3-({3-(4-Chlorophenyl)-5-oxo-4-[(2R)-3,3,3-trifluoro-2-hydroxypropyl]-4,5-dihydro-1H-1,2,4-triazol-1-yl}methyl)-1H-1,2,4-triazol-1-yl]-N-[2,2-difluorocyclopropyl]pyridine-2-carboxamide]
12 | 22000 | 1100 | 20.0 | NC(=O)[C@@H]1CC(F)(F)CN1C(=O)c1ncccc1-n1cnc(Cn2nc(-c3ccc(Cl)cc3)n(C[C@@H](O)C(F)(F)F)c2=O)n1 [Example 461, 1-({3-[3-({3-(4-Chlorophenyl)-5-oxo-4-[(2R)-3,3,3-trifluoro-2-hydroxypropyl]-4,5-dihydro-1H-1,2,4-triazol-1-yl}methyl)-1H-1,2,4-triazol-1-yl]pyridin-2-yl}carbonyl)-4,4-difluoro-L-prolinamide]
13 | 5950 | 97 | 61.3 | O=C(NC1CC1F)c1ncccc1-n1cnc(Cn2nc(-c3ccc(Cl)cc3)n(C[C@@H](O)C(F)(F)F)c2=O)n1 (stereo partly drawn) [Example 462, 3-[3-({3-(4-Chlorophenyl)-5-oxo-4-[(2R)-3,3,3-trifluoro-2-hydroxypropyl]-4,5-dihydro-1H-1,2,4-triazol-1-yl}methyl)-1H-1,2,4-triazol-1-yl]-N-[2-fluorocyclopropyl]pyridine-2-carboxamide]
14 | 32000 | 235 | 136.2 | O=C(c1ncccc1-n1cnc(Cn2nc(-c3ccc(Cl)cc3)n(C[C@@H](O)C(F)(F)F)c2=O)n1)N1CCC(F)(F)C1 [Example 463, 5-(4-Chlorophenyl)-2-[(1-{2-[(3,3-difluoropyrrolidin-1-yl)carbonyl]pyridin-3-yl}-1H-1,2,4-triazol-3-yl)methyl]-4-[(2R)-3,3,3-trifluoro-2-hydroxypropyl]-2,4-dihydro-3H-1,2,4-triazol-3-one]
15 | 32000 | 60 | 533.3 | CC1(C)CN(C(=O)c2ncccc2-n2cnc(Cn3nc(-c4ccc(Cl)cc4)n(C[C@@H](O)C(F)(F)F)c3=O)n2)CCO1 [Example 464, 5-(4-Chlorophenyl)-2-[(1-{2-[(2,2-dimethylmorpholin-4-yl)carbonyl]pyridin-3-yl}-1H-1,2,4-triazol-3-yl)methyl]-4-[(2R)-3,3,3-trifluoro-2-hydroxypropyl]-2,4-dihydro-3H-1,2,4-triazol-3-one]
16 | 3600 | 170 | 21.2 | O=C(NC1CC(F)(F)C1)c1ncccc1-n1cnc(Cn2nc(-c3ccc(Cl)cc3)n(C[C@@H](O)C(F)(F)F)c2=O)n1 [Example 465, 3-[3-({3-(4-Chlorophenyl)-5-oxo-4-[(2R)-3,3,3-trifluoro-2-hydroxypropyl]-4,5-dihydro-1H-1,2,4-triazol-1-yl}methyl)-1H-1,2,4-triazol-1-yl]-N-(3,3-difluorocyclobutyl)pyridine-2-carboxamide]
17 | 66000 | 710 | 93.0 | CC1CN(C(=O)c2ncccc2-n2cnc(Cn3nc(-c4ccc(Cl)cc4)n(C[C@@H](O)C(F)(F)F)c3=O)n2)CCO1 (stereo partly drawn) [Example 466, 5-(4-Chlorophenyl)-2-{[1-(2-{[2-methylmorpholin-4-yl]carbonyl}pyridin-3-yl)-1H-1,2,4-triazol-3-yl]methyl}-4-[(2R)-3,3,3-trifluoro-2-hydroxypropyl]-2,4-dihydro-3H-1,2,4-triazol-3-one]
18 | 32000 | 420 | 76.2 | O=C(c1ncccc1-n1cnc(Cn2nc(-c3ccc(Cl)cc3)n(C[C@@H](O)C(F)(F)F)c2=O)n1)N1CCC(O)(C(F)(F)F)C1 (stereo partly drawn) [Example 468, 5-(4-Chlorophenyl)-2-{[1-(2-{[3-hydroxy-3-(trifluoromethyl)pyrrolidin-1-yl]carbonyl}pyridin-3-yl)-1H-1,2,4-triazol-3-yl]methyl}-4-[(2R)-3,3,3-trifluoro-2-hydroxypropyl]-2,4-dihydro-3H-1,2,4-triazol-3-one]
19 | 32000 | 750 | 42.7 | O=C(c1ncccc1-n1cnc(Cn2nc(-c3ccc(Cl)cc3)n(C[C@@H](O)C(F)(F)F)c2=O)n1)N1CCOC(C(F)(F)F)C1 (stereo partly drawn) [Example 470, 5-(4-Chlorophenyl)-4-[(2R)-3,3,3-trifluoro-2-hydroxypropyl]-2-{[1-(2-{[2-(trifluoromethyl)morpholin-4-yl]carbonyl}pyridin-3-yl)-1H-1,2,4-triazol-3-yl]methyl}-2,4-dihydro-3H-1,2,4-triazol-3-one]

— patent publication US11173151B2, “Substituted triazole derivatives and uses thereof” (BAYER AKTIENGESELLSCHAFT, priority 2017, dated 2021)
